Assay results taken from patent US20220274965A1, “ANTIVIRAL AGENTS AND USES THEREOF” (GRIFFITH UNIVERSITY, priority 2019, published 2022).
Like-named read-outs stand apart in the source and are kept apart here.

What was measured:
hPIV-1 strain C35 = assay: Haemagglutination inhibition (HI) assay with human red blood cells; format: biochemical; details: hPIV1 C35
hPIV-3 strain C243 [1] = assay: as above; format: biochemical; details: hPIV3 C243
[2] = target: hPIV-3 strain C243 neuraminidase (UniProt P08492, species not given/STRAIN_C243); format: biochemical
Sequence of hPIV-3 strain C243 neuraminidase (P08492 whole entry, change not shown): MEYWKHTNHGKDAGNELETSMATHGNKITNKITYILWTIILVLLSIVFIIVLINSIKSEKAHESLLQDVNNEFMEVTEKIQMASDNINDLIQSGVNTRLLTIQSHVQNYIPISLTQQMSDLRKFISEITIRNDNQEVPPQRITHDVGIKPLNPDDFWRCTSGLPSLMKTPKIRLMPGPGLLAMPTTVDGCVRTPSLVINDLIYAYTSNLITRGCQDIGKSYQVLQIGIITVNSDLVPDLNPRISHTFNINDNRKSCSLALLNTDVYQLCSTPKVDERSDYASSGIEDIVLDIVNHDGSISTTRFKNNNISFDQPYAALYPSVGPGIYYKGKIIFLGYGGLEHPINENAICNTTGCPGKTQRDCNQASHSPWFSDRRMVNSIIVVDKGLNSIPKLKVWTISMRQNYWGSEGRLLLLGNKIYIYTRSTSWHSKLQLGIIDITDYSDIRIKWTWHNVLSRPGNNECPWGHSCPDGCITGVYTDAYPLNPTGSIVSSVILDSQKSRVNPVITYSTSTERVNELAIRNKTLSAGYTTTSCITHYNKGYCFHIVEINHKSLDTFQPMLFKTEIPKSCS

[3] = target: hPIV-3 strain CI002 (clinical isolate) neuraminidase (UniProt P08492, species not given/STRAIN_CI002); format: biochemical; details: hPIV3 CI002; read-out: NI IC50
Sequence of hPIV-3 strain CI002 (clinical isolate) neuraminidase (P08492 whole entry, change not shown): as above

[4] = tested on: hPIV-3 strain CI002 (clinical isolate); assay: Haemagglutination inhibition (HI) assay with human red blood cells; format: biochemical; details: hPIV3 CI002
hPIV-3 strain C243 [5] = assay: In situ ELISA virus growth inhibition in LLC-MK2 cells; format: cell-based; details: Human respirovirus 3, LLC-MK2; hPIV-3 strain C243; Table 1
hPIV-3 strain JS = assay: Haemagglutination inhibition (HI) assay with human red blood cells; format: biochemical; details: hPIV3 JS
[6] = hPIV3 C243, Table 2, read-out: NI IC50
[7] = hPIV-3 strain C243, Table 1, read-out: NI (IC50)

## O=C(O)C1=C[C@H](n2cc3cc4c(cc3n2)OCO4)[C@@H](NC(=O)C(F)(F)F)[C@H]([C@H](O)[C@H](O)CO)O1
hPIV-1 strain C35
  IC50: 133 µM
hPIV-3 strain C243 [1]
  IC50: 14.8 µM
[2]; [6]
  IC50: 12.9 µM
[3]
  IC50: 38.9 µM
[4]
  IC50: 66.7 µM

## CC(C)C(=O)N[C@H]1[C@H]([C@H](O)[C@H](O)CO)OC(C(=O)O)=C[C@@H]1n1cc2cc(C(=O)O)ccc2n1
hPIV-3 strain C243 [1]
  IC50: > 200 µM
[2]; [6]
  IC50: 230 µM
[3]
  IC50: 163 µM

## CC(=O)N[C@H]1[C@H]([C@H](O)[C@H](O)CO)OC(C(=O)O)=C[C@@H]1n1cc2ccc3ccccc3c2n1 [IE1530-65]
[2]; [7]
  IC50: 10.2 µM

## CC(=O)N[C@H]1[C@H]([C@H](O)[C@H](O)CO)OC(C(=O)O)=C[C@@H]1n1cc2ccccc2n1 [IE1530-66]
[2]; [7]
  IC50: 92.8 µM

## O=C(O)C1=C[C@H](n2cc3ccc4ccccc4c3n2)[C@@H](NC(=O)C(F)(F)F)[C@H]([C@H](O)[C@H](O)CO)O1 [IE1530-69]
[2]; [7]
  IC50: 2.84 µM

## O=C(O)C1=C[C@H](n2cc3ccccc3n2)[C@@H](NC(=O)C(F)(F)F)[C@H]([C@H](O)[C@H](O)CO)O1 [IE1530-74, Sodium 2,6-anhydro-3,4,5-trideoxy-4-(2H-indazol-2-yl)-5-(2,2,2-trifluoroacetamido)-D-glycero-D-galacto-non-2-enonate]
[2]; [7]
  IC50: 9.37 µM

## CC(=O)N[C@H]1[C@H]([C@H](O)[C@H](O)CO)OC(C(=O)O)=C[C@@H]1n1cc(-c2ccccc2NS(C)(=O)=O)nn1 [IE1778-12]
[2]; [7]
  IC50: 29.1 µM

## CC(=O)N[C@H]1[C@H]([C@H](O)[C@H](O)CO)OC(C(=O)O)=C[C@@H]1n1cc(-c2ccccc2NC(=O)CO)nn1 [IE1778-25]
[2]; [7]
  IC50: 27.9 µM

## CC(=O)N[C@H]1[C@H]([C@H](O)[C@H](O)CO)OC(C(=O)O)=C[C@@H]1n1nnc2c3ccccc3ccc21 [IE1778-64]
[2]; [7]
  IC50: 4.13 µM

## O=C(O)C1=C[C@H](n2nnc3c4ccccc4ccc32)[C@@H](NC(=O)C(F)(F)F)[C@H]([C@H](O)[C@H](O)CO)O1 [IE1778-74]
[2]; [7]
  IC50: 0.568 µM
hPIV-3 strain C243 [5]
  IC50: 1.87 µM

## CC(=O)N[C@H]1[C@H]([C@H](O)[C@H](O)CO)OC(C(=O)O)=C[C@@H]1n1cc(-c2ccccc2NC(=O)CCCCCCCCCCC(=O)Nc2ccccc2-c2cn([C@H]3C=C(C(=O)O)O[C@@H]([C@H](O)[C@H](O)CO)[C@@H]3NC(C)=O)nn2)nn1 [IE1826-01]
[2]; [7]
  IC50: 8.09 µM
hPIV-3 strain C243 [5]
  IC50: 17.9 µM

## CC(=O)N[C@@H]1[C@@H]([C@@H](O)[C@@H](O)CO)OC(C(=O)O)=C[C@H]1n1cc(-c2ccccc2NC(=O)CCCCCn2cc(CCCc3cn(CCCCCC(=O)Nc4ccccc4-c4cn([C@H]5C=C(C(=O)O)O[C@@H]([C@H](O)[C@H](O)CO)[C@@H]5NC(C)=O)nn4)nn3)nn2)nn1 [IE1826-14]
[2]; [7]
  IC50: 8.22 µM

## CC(=O)N[C@H]1[C@H]([C@H](O)[C@H](O)CO)OC(C(=O)O)=C[C@@H]1n1cc(-c2ccccc2NC(=O)CCCCCN=[N+]=[N-])nn1 [IE1826-23]
[2]; [7]
  IC50: 69.2 µM

## CC(=O)N[C@@H]1[C@@H]([C@@H](O)[C@@H](O)CO)OC(C(=O)O)=C[C@H]1n1cc(-c2ccccc2NC(=O)CCCCc2cn(CCCCCC(=O)Nc3ccccc3-c3cn([C@H]4C=C(C(=O)O)O[C@@H]([C@H](O)[C@H](O)CO)[C@@H]4NC(C)=O)nn3)nn2)nn1 [IE1826-28]
[2]; [7]
  IC50: 14 µM

## CC(=O)N[C@H]1[C@H]([C@H](O)[C@H](O)CO)OC(C(=O)O)=C[C@@H]1n1cc(-c2ccccc2NC(=O)CCCCCn2cc(-c3ccccc3)nn2)nn1 [IE1826-30]
[2]; [7]
  IC50: 24.3 µM

## CC(=O)N[C@H]1[C@H]([C@H](O)[C@H](O)CO)OC(C(=O)O)=C[C@@H]1n1cc(-c2ccccc2NC(=O)CCCCCn2cc(C(=O)O)nn2)nn1 [IE1826-34]
[2]; [7]
  IC50: 16.7 µM

## COCc1cn(CCCCCC(=O)Nc2ccccc2-c2cn([C@H]3C=C(C(=O)O)O[C@@H]([C@H](O)[C@H](O)CO)[C@@H]3NC(C)=O)nn2)nn1 [IE1826-38]
[2]; [7]
  IC50: 24.2 µM

## CC(=O)N[C@H]1[C@H]([C@H](O)[C@H](O)CO)OC(C(=O)O)=C[C@@H]1n1cc(-c2ccccc2NC(=O)CCCCCn2cc(CO)nn2)nn1 [IE1826-44]
[2]; [7]
  IC50: 47.2 µM

## CC(=O)N[C@H]1[C@H]([C@H](O)[C@H](O)CO)OC(C(=O)O)=C[C@@H]1n1cc(-c2ccccc2NS(C)(=O)=O)nn1 [drawing 111]
hPIV-3 strain JS
  IC50: 28 µM
hPIV-1 strain C35
  IC50: > 200 µM
[4]
  IC50: 60 µM
